Columns and labels:
E. coli ATCC 25922 = assay: MIC, NCCLS broth microdilution; assay type: cell-based, Escherichia coli; conditions: G = E. coli ATCC 25922
How it was run: (§1)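 Compounds were serially diluted in broth and tested against each strain according to NCCLS guidelines, with MIC taken as the endpoint. C. albicans was assayed per the Manual of Clinical Microbiology.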

S. pneumoniae ATCC 49619 = assay: MIC, NCCLS broth microdilution; assay type: cell-based, Streptococcus pneumoniae; conditions: E = S. pneumoniae ATCC 49619
How it was run: as §1

C. albicans ATCC 38247 = assay: MIC, antifungal assay; assay type: cell-based, Candida albicans; conditions: F = C. albicans ATCC 38247
How it was run: (§2)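 Broth microdilution, NCCLS M7-A4/M11-A4/M27-T guidelines; read-out MIC. MRSA strain for S. aureus. Candida: Manual of Clinical Microbiology method.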

B. cereus ATCC 11778 = assay: MIC, NCCLS broth microdilution; assay type: cell-based, Bacillus cereus; conditions: D = B. cereus ATCC 11778
How it was run: as §2

E. faecalis ATCC 29212 = assay: MIC, NCCLS broth microdilution; assay type: cell-based, Enterococcus faecalis; conditions: C = E. faecalis ATCC 29212
How it was run: as §1

S. aureus ATCC 27660 = assay: MIC, NCCLS broth microdilution; assay type: cell-based, Staphylococcus aureus; conditions: B = S. aureus ATCC 27660 (MRSA)
How it was run: as §2

S. aureus ATCC 13709 = assay: MIC, NCCLS broth microdilution; assay type: cell-based, Staphylococcus aureus; conditions: A = S. aureus ATCC 13709 (MSSA)
How it was run: as §1

[1] = tested on: M. catarrhalis (ATCC 25238); assay: MIC, NCCLS broth microdilution; assay type: cell-based, Moraxella (now Branhamella) catarrhalis; conditions: H = M. catarrhalis (ATCC 25238)
How it was run: as §2

Row | SMILES | Minimum Inhibitory Concentration (MIC) (E. coli ATCC 25922) | Minimum Inhibitory Concentration (MIC) (S. pneumoniae ATCC 49619) | Minimum Inhibitory Concentration (MIC) (C. albicans ATCC 38247) | Minimum Inhibitory Concentration (MIC) (B. cereus ATCC 11778) | Minimum Inhibitory Concentration (MIC) (E. faecalis ATCC 29212) | Minimum Inhibitory Concentration (MIC) (S. aureus ATCC 27660) | Minimum Inhibitory Concentration (MIC) (S. aureus ATCC 13709) | Minimum Inhibitory Concentration (MIC) [1]
1 | Cn1cc(NC(=O)c2cc3ccccc3cn2)cc1C(=O)Nc1ccc(C(=O)Nc2cn(C)c(C(=O)NCCNCC3CC3)n2)cc1 [Compound A-34] | +++ (MIC ≦ 4 μg/mL) | +++ (MIC ≦ 4 μg/mL) | >32 µg/mL | +++ (MIC ≦ 4 μg/mL) | +++ (MIC ≦ 4 μg/mL) | +++ (MIC ≦ 4 μg/mL) | +++ (MIC ≦ 4 μg/mL) | +++ (MIC ≦ 4 μg/mL)
2 | Cn1cc(NC(=O)c2cc3ccccc3cn2)cc1C(=O)Nc1ccc(C(=O)Nc2cn(C)c(C(=O)NCCNCCN3CCCC3)n2)cc1 [Compound A-36] | >32 µg/mL | +++ (MIC ≦ 4 μg/mL) | + (12 ≦ MIC ≦ 32 μg/mL) | +++ (MIC ≦ 4 μg/mL) | +++ (MIC ≦ 4 μg/mL) | +++ (MIC ≦ 4 μg/mL) | +++ (MIC ≦ 4 μg/mL) | ++ (4 < MIC < 12 μg/mL)
3 | CCCNCCNC(=O)c1nc(NC(=O)c2ccc(NC(=O)c3cc(NC(=O)c4cc5ccccc5cn4)cn3C)cc2)cn1C [Compound A-37] | +++ (MIC ≦ 4 μg/mL) | +++ (MIC ≦ 4 μg/mL) | >32 µg/mL | +++ (MIC ≦ 4 μg/mL) | +++ (MIC ≦ 4 μg/mL) | +++ (MIC ≦ 4 μg/mL) | +++ (MIC ≦ 4 μg/mL) | +++ (MIC ≦ 4 μg/mL)
4 | COCC(C)NCCNC(=O)c1nc(NC(=O)c2ccc(NC(=O)c3cc(NC(=O)c4cc5ccccc5cn4)cn3C)cc2)cn1C (centres unmarked) [Compound A-38] | >32 µg/mL | +++ (MIC ≦ 4 μg/mL) | >32 µg/mL | +++ (MIC ≦ 4 μg/mL) | +++ (MIC ≦ 4 μg/mL) | +++ (MIC ≦ 4 μg/mL) | +++ (MIC ≦ 4 μg/mL) | +++ (MIC ≦ 4 μg/mL)
5 | Cn1cc(NC(=O)c2cc3ccccc3cn2)cc1C(=O)Nc1ccc(C(=O)Nc2cn(C)c(C(=O)NCCN3CCCCC3CN3CCCC3)n2)cc1 (centres unmarked) [Compound A-40] | >32 µg/mL | +++ (MIC ≦ 4 μg/mL) | >32 µg/mL | +++ (MIC ≦ 4 μg/mL) | +++ (MIC ≦ 4 μg/mL) | +++ (MIC ≦ 4 μg/mL) | +++ (MIC ≦ 4 μg/mL) | ++ (4 < MIC < 12 μg/mL)

Other lines, results leading:

Row | Minimum Inhibitory Concentration (MIC) (E. coli ATCC 25922) | Minimum Inhibitory Concentration (MIC) (S. pneumoniae ATCC 49619) | Minimum Inhibitory Concentration (MIC) (C. albicans ATCC 38247) | Minimum Inhibitory Concentration (MIC) (B. cereus ATCC 11778) | Minimum Inhibitory Concentration (MIC) (E. faecalis ATCC 29212) | Minimum Inhibitory Concentration (MIC) (S. aureus ATCC 27660) | Minimum Inhibitory Concentration (MIC) (S. aureus ATCC 13709) | Minimum Inhibitory Concentration (MIC) [1] | SMILES
6 | >32 µg/mL | +++ (MIC ≦ 4 μg/mL) | >32 µg/mL | +++ (MIC ≦ 4 μg/mL) | +++ (MIC ≦ 4 μg/mL) | +++ (MIC ≦ 4 μg/mL) | +++ (MIC ≦ 4 μg/mL) | ++ (4 < MIC < 12 μg/mL) | Cn1cc(NC(=O)c2cc3ccccc3cn2)cc1C(=O)Nc1ccc(C(=O)Nc2cn(C)c(C(=O)NCCNC3CCCCC3)n2)cc1 [Compound A-35]
7 | >32 µg/mL | +++ (MIC ≦ 4 μg/mL) | >32 µg/mL | +++ (MIC ≦ 4 μg/mL) | +++ (MIC ≦ 4 μg/mL) | +++ (MIC ≦ 4 μg/mL) | +++ (MIC ≦ 4 μg/mL) | >32 µg/mL | COCCCNCCNC(=O)c1nc(NC(=O)c2ccc(NC(=O)c3cc(NC(=O)c4cc5ccccc5cn4)cn3C)cc2)cn1C [Compound A-39]

Reference: patent publication US7642245B2, “Antibacterial compounds having a (pyrrole carboxamide)-(benzamide)-(imidazole carboxamide) motif” (Oscient Pharmaceuticals Corporation, priority 2002, dated 2010)
